For 30 compounds, IC50 results are on record in US20190119282A1, “IMIDAZOPYRIDAZINES USEFUL AS INHIBITORS OF THE PAR-2 SIGNALING PATHWAY” (Vertex Pharmaceuticals Incorporated, priority 2013, published 2019).

Assay [1] has as its target T1, PAR2 (HT-29 cells, SLIGKV activation) (Homo sapiens, UniProt P55085).
T1 construct: host or cells: HT-29 cells
T1 sequence (P55085 26-397): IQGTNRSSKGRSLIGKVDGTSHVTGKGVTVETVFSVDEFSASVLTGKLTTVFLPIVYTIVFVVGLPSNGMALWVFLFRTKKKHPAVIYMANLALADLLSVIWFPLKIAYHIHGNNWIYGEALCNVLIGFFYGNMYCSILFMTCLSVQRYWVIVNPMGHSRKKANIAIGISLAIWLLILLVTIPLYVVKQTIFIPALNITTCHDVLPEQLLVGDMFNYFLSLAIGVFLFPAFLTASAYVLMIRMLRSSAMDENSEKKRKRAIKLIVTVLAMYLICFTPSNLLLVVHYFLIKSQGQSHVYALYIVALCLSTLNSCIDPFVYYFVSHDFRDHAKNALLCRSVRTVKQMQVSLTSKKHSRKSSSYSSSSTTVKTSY
As to the kind of experiment: Ca FLIPR TETRA assay, ANTAGONIST mode, stimulation with 8 μM SLIGKV. In kind it is cell-based. Conditions: HT-29 cells, stimulation with 8 μM SLIGKV. Summed up:
(§1)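 HT-29 cells grown overnight in 1% FBS McCoy's medium were loaded with calcium 5 dye (45 min 37 °C, 15 min r.t.). Compounds were added and Ca2+ read for direct activation, then after 30 min at r.t. cells were stimulated with 8 μM SLIGKV, 1 U/mL thrombin, 3.1 U/mL trypsin or 0.6 μM UTP (final).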

Assay [2] concerns the target T2, PAR2 (HT-29 cells, trypsin activation) (Homo sapiens, UniProt P55085).
T2 construct: host or cells: HT-29 cells
T2 sequence (P55085 26-397): T1 sequence (P55085 26-397)
As to the kind of experiment: Ca FLIPR TETRA assay, ANTAGONIST mode, stimulation with 3.1 U/mL trypsin. The format is cell-based. The settings on record: HT-29 cells, stimulation with 3.1 U/mL trypsin. A digest of the protocol: as §1

Assay [3] concerns Thrombin-stimulated Ca2+ response in HT-29 cells. As to the kind of experiment: Ca FLIPR TETRA assay, ANTAGONIST mode, stimulation with 1 U/mL Thrombin. Conditions: Homo sapiens, HT-29 cells, stimulation with 1 U/mL Thrombin. In kind it is cell-based, human. A digest of the protocol: as §1
Assay [4] relates to UTP-stimulated Ca2+ response in HT-29 cells. Briefly: Ca FLIPR TETRA assay, ANTAGONIST mode, stimulation with 0.6 μM UTP. The format is cell-based, human. Conditions: Homo sapiens, HT-29 cells, stimulation with 0.6 μM UTP. Summed up: as §1

For `CC(C)c1cc(-c2ccc(F)cc2)nn2cc(C(=O)N3CCN(C(=O)[C@H](O)CC4CC4)[C@@H](C)C3)nc12` [Compound I-171], the 50% inhibitory concentration (IC50) in assay [1] came out at 3 nM; in assay [2] it was 5 nM; in assay [3], 15000 nM; in assay [4], 15000 nM.
In the case of `CCc1cc(-c2ccc(F)cc2)nn2cc(C(=O)N3CCN(C(=O)[C@H](O)C(C)(C)C)[C@@H](C)C3)nc12` [Compound I-172], the IC50 turned out to be 22 nM in assay [1], 330 nM in assay [2], 15000 nM in assay [3] and 15000 nM in assay [4].
Take `CCc1cc(-c2ccc(F)cc2)nn2cc(C(=O)N3CCN(C(=O)[C@H](O)CC4CC4)CC3(C)C)nc12` [Compound I-173]: the IC50 in assay [1] is 8 nM; in assay [2] it was 13 nM; in assay [3], 20000 nM; in assay [4], 23000 nM.
Consider `CC(C)c1cc(-c2ccc(F)cc2)nn2cc(C(=O)N3CCN(C(=O)C(C)(C)O)CC3(C)C)nc12` [Compound I-174], for which the IC50 in assay [1] was 28 nM; in assay [2] it was 55 nM; in assay [3], 35000 nM; in assay [4] it was 38000 nM.
On to `CC(O)C(=O)N1CCN(C(=O)c2cn3nc(-c4ccc(F)cc4)cc(C(C)C)c3n2)C(C)(C)C1` (stereo not drawn) [Compound I-175], for which the half-maximal inhibitory concentration (IC50) in assay [1] amounted to 23 nM; in assay [2], 60 nM; in assay [3], 41000 nM; in assay [4] it was 34000 nM.
For `CC(C)c1cc(-c2ccc(F)cc2)nn2cc(C(=O)N3CCN(C(=O)C(O)C(C)C)CC3(C)C)nc12` (stereo not drawn) [Compound I-176], in that order: 6 nM, 11 nM, 14000 nM and 17000 nM.
For `CC(C)c1cc(-c2ccc(F)cc2)nn2cc(C(=O)N3CCN(C(=O)[C@H]4CCC(=O)N4)CC3(C)C)nc12` [Compound I-177], in that order: 48 nM, 82 nM, 35000 nM and 40000 nM.
For `CC(C)c1cc(-c2ccc(F)cc2)nn2cc(C(=O)N3CCN(C(=O)C4(O)CCC4)C[C@H]3C)nc12` [Compound I-178], in that order: 4800 nM, 8300 nM, 43000 nM and 14000 nM.
With `CCC1(C)C(=O)NCCN1C(=O)c1cn2nc(-c3ccc(F)cc3)cc(C(C)C)c2n1` (stereo not drawn) [Compound I-179], the IC50 was 3 nM in assay [1], 11 nM in assay [2], 6900 nM in assay [3] and 8500 nM in assay [4].
As for `CC(C)c1cc(-c2ccc(F)cc2)nn2cc(C(=O)N3CCN(CC(C)(C)O)C(=O)C3(C)C)nc12` [Compound I-180], the IC50 in assay [1] was 32 nM; in assay [2], 41 nM; in assay [3], greater than 50000 nM; in assay [4], 18000 nM.
Consider `CC(C)c1cc(-c2ccc(F)cc2)nn2cc(C(=O)N3CCN(C)C(=O)C3(C)C)nc12` [Compound I-181], for which the IC50 came out at 10 nM in assay [1], 11 nM in assay [2], 10000 nM in assay [3] and 5800 nM in assay [4].
For the compound `C[C@@H]1CN(c2cc(-c3ccc(F)cc3)nn3cc(C(=O)N4CCNC(=O)C4(C)C)nc23)C[C@H](C)O1` [Compound I-182], the IC50 in assay [1] (antagonist mode) amounted to 17.3 nM; in assay [2] (antagonist mode), 40.3 nM; in assay [3] (antagonist mode) it was 1140 nM; in assay [4] (antagonist mode), 1270 nM.
As to `C[C@H]1CN(c2cc(-c3ccc(F)cc3)nn3cc(C(=O)N4CCNC(=O)C4(C)C)nc23)C[C@H](C)O1` [Compound I-183], the IC50 came out at 15 nM in assay [1] (antagonist mode), 33.6 nM in assay [2] (antagonist mode), 840 nM in assay [3] (antagonist mode) and 810 nM in assay [4] (antagonist mode).
`CC(C)(O)c1cc(-c2ccc(F)cc2)nn2cc(C(=O)N3CCNC(=O)C3(C)C)nc12` [Compound I-184, 4-[6-(4-fluorophenyl)-8-(1-hydroxy-1-methyl-ethyl)imidazo[1,2-b]pyridazine-2-carbonyl]-3,3-dimethyl-piperazin-2-one]: the IC50 stood at 125 nM in assay [1] (antagonist mode), 182 nM in assay [2] (antagonist mode), 1450 nM in assay [3] (antagonist mode) and 1950 nM in assay [4] (antagonist mode).
As for `C[C@@H]1CN(c2cc(-c3ccc(F)cc3)nn3cc(C(=O)N4CCN(C(=O)C(C)(C)O)CC4(C)C)nc23)C[C@H](C)O1` [Compound I-185], the IC50 is 117 nM in assay [1] (antagonist mode), 157 nM in assay [2] (antagonist mode), greater than 5000 nM in assay [3] (antagonist mode) and greater than 5000 nM in assay [4] (antagonist mode).
For `CC(C)[C@@H](O)C(=O)N1CCN(C(=O)c2cn3nc(-c4ccc(F)cc4)cc(N4C[C@@H](C)O[C@@H](C)C4)c3n2)C(C)(C)C1` [Compound I-186], the IC50 in assay [1] (antagonist mode) amounted to 27.7 nM; in assay [2] (antagonist mode) it was 38.7 nM; in assay [3] (antagonist mode), 1500 nM; in assay [4] (antagonist mode), 1800 nM.
For `CC(C)c1cc(-c2ccc(F)cc2)nn2cc(C(=O)N3C[C@H](C)OCC3(C)C)nc12` [Compound I-187], in that order: 62.5 nM, 52.5 nM, greater than 50000 nM and 33000 nM.
In the case of `CN1CCN(C(=O)c2cn3nc(-c4ccc(F)cc4)cc(C(C)(C)C)c3n2)C(C)(C)C1=O` [Compound I-188], the IC50 was found to be 1.8 nM in assay [1] (antagonist mode), 4 nM in assay [2] (antagonist mode), 2500 nM in assay [3] (antagonist mode) and 3900 nM in assay [4] (antagonist mode).
Consider `CC(C)(CO)c1cc(-c2ccc(F)cc2)nn2cc(C(=O)N3CCNC(=O)C3(C)C)nc12` [Compound I-189], for which the IC50 in assay [1] (antagonist mode) is 400 nM; in assay [2] (antagonist mode), 417 nM; in assay [3] (antagonist mode) it was greater than 1000 nM; in assay [4] (antagonist mode), greater than 50000 nM.
For `CC(C)(C)OC(=O)N1CCN(C(=O)c2cn3nc(-c4ccc(F)cc4)cc(C(C)(C)C)c3n2)C(C)(C)C1` [Compound I-190], in that order: 4.2 nM, 4.8 nM, greater than 50000 nM and greater than 50000 nM.
For `CN(C)C(=O)C(C)(C)c1cc(-c2ccc(F)cc2)nn2cc(C(=O)N3CCNC(=O)C3(C)C)nc12` [Compound I-192], in that order: 575 nM, 8950 nM, greater than 50000 nM and greater than 50000 nM.
Turning to `COCC(C)(C)c1cc(-c2ccc(F)cc2)nn2cc(C(=O)N3CCNC(=O)C3(C)C)nc12` [Compound I-193], the IC50 in assay [1] (antagonist mode) was determined as 5.3 nM; in assay [2] (antagonist mode) it was 46 nM; in assay [3] (antagonist mode), 10000 nM; in assay [4] (antagonist mode) it was 19000 nM.
For `CN(C)C(=O)CN1CCN(C(=O)c2cn3nc(-c4ccc(F)cc4)cc(C(C)(C)C)c3n2)C(C)(C)C1=O` [Compound I-194], in that order: 41.3 nM, 40.3 nM, greater than 1000 nM and greater than 1000 nM.
Turning to `CC(C)c1cc(-c2ccc(F)cc2)nn2cc(C(=O)N3CCN(C(=O)C(O)C(C)C)C[C@H]3C)nc12` (stereo partly drawn) [Compound I-195], the IC50 in assay [1] (antagonist mode) was 570 nM; in assay [2] (antagonist mode) it was greater than 1000 nM; in assay [3] (antagonist mode), greater than 1000 nM; in assay [4] (antagonist mode), greater than 1000 nM.
As for `CC(C)c1cc(-c2ccc(F)cc2)nn2cc(C(=O)N3CCN(C(=O)[C@H](O)CC(C)(C)C)C[C@H]3C)nc12` [Compound I-196], the IC50 in assay [1] (antagonist mode) was 20.5 nM; in assay [2] (antagonist mode), 20 nM; in assay [3] (antagonist mode), greater than 1000 nM; in assay [4] (antagonist mode), greater than 1000 nM.
Take `CC(C)c1cc(-c2ccc(F)cc2)nn2cc(C(=O)N3CCN(C(=O)[C@H](O)CC(C)(C)C)C[C@@H]3C)nc12` [Compound I-197]: the IC50 in assay [1] (antagonist mode) was 150 nM; in assay [2] (antagonist mode) it was 430 nM; in assay [3] (antagonist mode), greater than 1000 nM; in assay [4] (antagonist mode), greater than 1000 nM.
For `CC(C)(O)C(=O)N1CCN(C(=O)c2cn3nc(-c4ccc(F)cc4)cc(C(C)(C)C)c3n2)C(C)(C)C1` [Compound I-198], the half-inhibitory concentration (IC50) in assay [1] (antagonist mode) is 4.4 nM; in assay [2] (antagonist mode), 5.6 nM; in assay [3] (antagonist mode), greater than 1000 nM; in assay [4] (antagonist mode) it was greater than 1000 nM.
For the compound `CC(C)(C)c1cc(-c2ccc(F)cc2)nn2cc(C(=O)N3CCN(C(=O)C4CCCO4)CC3(C)C)nc12` (stereo not drawn) [Compound I-200], the IC50 was 2.4 nM in assay [1] (antagonist mode), 2.9 nM in assay [2] (antagonist mode), greater than 1000 nM in assay [3] (antagonist mode) and greater than 1000 nM in assay [4] (antagonist mode).
Take `CC(C)(C)c1cc(-c2ccc(F)cc2)nn2cc(C(=O)N3CCN(C(=O)c4ccno4)CC3(C)C)nc12` [Compound I-202]: the IC50 in assay [1] (antagonist mode) was 0.6 nM; in assay [2] (antagonist mode) it was 0.9 nM; in assay [3] (antagonist mode), greater than 1000 nM; in assay [4] (antagonist mode), greater than 1000 nM.
With `CC(C)(C)c1cc(-c2ccc(F)cc2)nn2cc(C(=O)N3CCN(C(=O)c4ccon4)CC3(C)C)nc12` [Compound I-203], the IC50 in assay [1] (antagonist mode) is 0.7 nM; in assay [2] (antagonist mode), 1 nM; in assay [3] (antagonist mode), greater than 1000 nM; in assay [4] (antagonist mode), greater than 1000 nM.
